Reference: PubChem BioAssay (NCI)
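Values below derive from 48-hour exposures of cells grown in 96-well plates, with endpoints linearly interpolated between the two concentrations bracketing the appropriate inhibition level. GI50 marks 50% less growth. TGI denotes the concentration required for complete inhibition of growth.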

Legend:
Assay in all cases: growth of human tumour cells (NCI), 48 h
[1] = system: NCI-H23 lung
[2] = system: NCI-H460 lung
[3] = system: NCI-H522 lung
[4] = system: NCI/ADR-RES ovarian
[5] = system: OVCAR-3 ovarian
[6] = system: OVCAR-4 ovarian
[7] = system: OVCAR-5 ovarian
[8] = system: OVCAR-8 ovarian
[9] = system: PC-3 prostate
[10] = system: RPMI-8226 leukemia
[11] = system: RXF 393 renal
[12] = system: SF-268 CNS
[13] = system: SF-295 CNS
[14] = system: SF-539 CNS
[15] = system: SK-MEL-2 melanoma
[16] = system: SK-MEL-28 melanoma
[17] = system: SK-MEL-5 melanoma
[18] = system: SK-OV-3 ovarian
[19] = system: SN12C renal
[20] = system: SNB-19 CNS
[21] = system: SNB-75 CNS
[22] = system: SR leukemia
[23] = system: T-47D breast
[24] = system: TK-10 renal
[25] = system: U251 CNS
[26] = system: UACC-257 melanoma
[27] = system: UACC-62 melanoma
[28] = system: UO-31 renal

COc1ccc2[nH]c(=O)c(CSc3nccc(-c4ccc(OC)c(OC)c4)n3)cc2c1
TGI [1]: 45.4 µM
GI50 [2]: 17.4 µM
TGI [2]: 40.3 µM
GI50 [3]: 16.4 µM
TGI [3]: 37.3 µM
GI50 [4]: 14.2 µM
TGI [4]: 41.2 µM
GI50 [5]: 15.2 µM
TGI [5]: 37.3 µM
GI50 [6]: 16.5 µM
TGI [6]: 78.2 µM
GI50 [7]: 19.1 µM
TGI [7]: 53.5 µM
GI50 [8]: 21 µM
TGI [8]: > 100 µM
GI50 [9]: 11.9 µM
TGI [9]: 25.7 µM
GI50 [10]: 6.26 µM
TGI [10]: 88 µM
GI50 [11]: 6.08 µM
TGI [11]: 40.1 µM
GI50 [12]: 14.7 µM
TGI [12]: 47.8 µM
GI50 [13]: 17.2 µM
TGI [13]: 43 µM
GI50 [14]: 12.3 µM
TGI [14]: 25.7 µM
GI50 [15]: 15.1 µM
TGI [15]: 51.3 µM
GI50 [16]: 20.3 µM
TGI [16]: 41.5 µM
GI50 [17]: 9.51 µM
TGI [17]: 37.4 µM
GI50 [18]: 25.5 µM
TGI [18]: 60.7 µM
GI50 [19]: 11.2 µM
TGI [19]: 42.7 µM
GI50 [20]: 14.5 µM
TGI [20]: 36 µM
GI50 [21]: 3.43 µM
TGI [21]: 25.9 µM
GI50 [22]: 15.9 µM
TGI [22]: > 100 µM
GI50 [23]: 10.9 µM
TGI [23]: 67.4 µM
GI50 [24]: 13.3 µM
TGI [24]: 33.7 µM
GI50 [25]: 22.4 µM
TGI [25]: > 100 µM
GI50 [26]: 28.9 µM
TGI [26]: 99.9 µM
GI50 [27]: 15 µM
TGI [27]: 35.3 µM
GI50 [28]: 10.4 µM
TGI [28]: 23.7 µM
